This passage reports melting point results from a melting point compilation (Tetko et al.; mined from patent text by program, amines drawn as free bases though some values may be those of a salt).

Consider `CCN(CC)CCNC(=O)c1cc(Cl)c(N)cc1OCC(=O)c1ccccc1`, for which the melting point (as a rule, the temperature of the solid-liquid transition) was 153 to 154 °C.

`Cc1nc(N)nc(N)c1N=Nc1ccc(Br)cc1` registered a melting point of 245 to 246 °C.

Molecule `Clc1cc2nc(Br)c(Br)nc2cc1Cl` returned a melting point of 169 to 170 °C.

As for `Cc1cc(CC(=O)NCc2cccc3c2C(=O)N(C2CCC(=O)NC2=O)C3=O)c(C)o1` (stereo unspecified), the melting point is 193 to 195 °C.

`C#CCn1ccc2ccccc2c1=O`: the melting point lay within 104 to 105 °C.

Turning to `COc1cc(OCc2ccccn2)ccc1/C=C/c1cc(/C=C/c2ccc3ccn(Cc4ccccc4)c3c2)n[nH]1`, the melting point lay in the range of 89 to 93 °C.

`CCOC(=O)Oc1ccc(C(=O)OCCN2CCN(CCN3CCOCC3)CC2)cc1`: the melting point was 85 to 87 °C.

For the molecule `CC1=C(O)C(=O)c2ccccc2C1=O`, the melting point was in the range of 173 to 174 °C.

Molecule `CCOC(=O)C1=C(C)NC(c2c(F)cccc2F)=NC1c1ccc(F)cc1Cl` (stereo unspecified) showed a melting point of 163 to 165 °C.

`CC(C)Cc1nc2c(C(F)(F)F)cccc2c(O)c1C(=O)O` displayed a melting point of 200 °C.

Molecule `O=C1CCc2cc(N/C(=C3\C(=O)Nc4ccc([N+](=O)[O-])cc43)c3ccccc3)ccc2N1` gave a melting point above 300 °C.

Molecule `C[C@@H]1O[C@@]1(Cn1cncn1)c1ccc(Cl)cc1` showed a melting point of 51 to 53 °C.

Consider `O=C(O)c1cc(-c2ccc3c(c2)CCO3)nn(CCCc2ccc(Cl)cc2)c1=O`, for which the melting point was in the range of 157 to 160 °C.

With `NC(=O)c1c(C(=O)O)cnn1-c1ccc(Cl)cc1Cl`, the melting point was 239 to 240 °C.

In turn, `CCOC(=O)C(=CNc1ccc(CO)cc1I)C(=O)OCC` showed a melting point of 152 to 154 °C.

Consider `O=C(Nc1nnc(CC2CC2)o1)C(c1ccccc1)c1ccccc1`, for which the melting point is 158 to 159 °C.

Regarding `CCSc1nc2cccc(C(=O)O)c2n1Cc1ccc(-c2ccccc2-c2nc(=O)o[nH]2)cc1`, the melting point was 146 to 148 °C.

Regarding `CCC(CC)Nc1c(C)cnc(Oc2c(C)cc(Cl)cc2C)c1N`, the melting point was 72 to 74 °C.

In the case of `COC(=O)c1nc(-c2ccc(Cl)c(OC)c2F)cc(NC(C)=O)c1OCc1ccccc1`, the melting point fell in the range of 115 to 120 °C.

In turn, `COC(=O)c1ccc(COC2CC(n3cc(F)c(=O)[nH]c3=O)OC2CO)cc1` (stereo unspecified) showed a melting point of 169 to 170 °C.

The molecule `Cc1c(C(=O)N2Cc3ccccc3Cc3ccccc32)csc1C(N)=O` showed a melting point of 201 to 204 °C.

Turning to `CCCCCOc1ccc2c(c1)C=C(CN)CO2`, the melting point came to 126 °C.

For `COCCOc1ccc(C#CC2(O)CN3CCC2CC3)cc1Cl` (stereo unspecified), the melting point fell in the range of 138 to 139 °C.

On to `CN(C)C(=O)Sc1ccc(C(F)(F)F)cc1C(=O)c1ccc(C#N)cc1`, for which the melting point was 159 °C.

`NC(=O)C1(C2c3[nH]c4ccc(Cl)cc4c3CCN2C=O)CCC1` (stereo unspecified): the melting point was above 260 °C.

In turn, `Cc1cccc(-c2n[nH]cc2-c2ccc(F)c(-c3c[nH]c(C(O)CO)n3)c2)n1` (stereo unspecified) came in with a melting point of 125 to 127 °C.

Regarding `CNc1nc(-c2ccccc2)c(-c2nc3ccccc3c(=O)n2-c2ccc(Cl)cc2)s1`, the melting point is above 275 °C.

Consider `COC(=O)C(CCSC)NC(=O)c1ccc(CS(=O)(=O)c2cccnc2)cc1-c1ccccc1` (stereo unspecified), for which the melting point lay in the range of 152 to 154 °C.

In turn, `O=C1NC(CC(=O)C2CC2)c2cccn2-c2sccc21` (stereo unspecified) returned a melting point of 200 °C.

`CC(C)c1cccc(C(C)C)c1NC(=O)NC1CCC(C(C)(C)C)CC1` (stereo unspecified) registered a melting point of 264 to 266 °C.

Molecule `O=C(Nc1ccccc1)O[C@@H]1CN2CCC1CC2` gave a melting point of 129 to 130 °C.

On to `NNCCCS(=O)(=O)O`, for which the melting point was 147 to 148 °C.

Molecule `O=C(Nc1ccc2ccc(Cl)nc2n1)c1ccccc1F` displayed a melting point of 222 °C.

`Cc1ccc(C(=O)Nc2nc(-c3ccccc3)c(-c3nc4ccccc4c(=O)n3-c3ccccc3Cl)s2)cc1` showed a melting point above 275 °C.

Take `O=S1(=O)c2ccccc2Oc2cc(O)ccc21`: the melting point lay in the range of 213 to 215 °C.

As to `CCCCCOC(=O)CNC(=O)c1nc(Cl)c2ccc(OC(C)C)cc2c1O`, the melting point lay in the range of 75 to 77 °C.

`CS(=O)(=O)Oc1ccc2c(c1)C(=O)C(CC=O)C2` (racemic) returned a melting point of 85 to 87 °C.

Consider `O=C1CCN(C(=O)c2cc(-c3ccccc3)c(=O)n3c2-c2sccc2CC3)CC1`, for which the melting point lay in the range of 218 to 220 °C.

`CN(C)C(=O)CC1(O)C(=O)Nc2ccc(I)cc21` (stereo unspecified) had a melting point of 246 °C.

As for `COc1cccc(C(=O)CS(C)=O)c1N` (stereo unspecified), the melting point is 106 to 108 °C.

The molecule `COc1cc(Cl)nc(N(C=O)c2ccccc2)n1` returned a melting point of 118 to 120 °C.

In turn, `COC(=O)Cn1sc2nc(C)cc(C)c2c1=O` came in with a melting point of 89 to 91 °C.

Consider `CC(Br)C(=O)c1ccc2c(c1)C(C)NC(=O)N2` (stereo unspecified), for which the melting point lay within 153 to 156 °C.

Consider `Cc1c(NC(=O)CC(C)(C)C)cc2c(c1C)OC(C)(C)C2c1ccc(C=O)cc1` (stereo unspecified), for which the melting point was 169 to 170 °C.

In the case of `COC1CN(C(=O)Nc2ccc(C(F)(F)F)cc2)N=C1c1ccc(Cl)cc1` (stereo unspecified), the melting point lay in the range of 185 to 186 °C.

Turning to `COc1ccccc1CN[C@H]1CCCN[C@H]1C1CCCCC1` (relative stereo), the melting point is above 225 °C.

Molecule `CCCOc1cnc(CN)cc1O` registered a melting point of 159 to 160 °C.

In turn, `COc1ccc(C(O)=C(C#N)C(=O)C(C)(C)C)c([N+](=O)[O-])c1` showed a melting point of 85 to 88 °C.

Regarding `O=c1[nH]c(NCCc2c[nH]cn2)nc2c1ncn2C1CC(O)C(CO)O1` (stereo unspecified), the melting point lay in the range of 220 to 222 °C.

In the case of `O=C(NCC1CC1)c1ccc(-c2ccc3nnn(Cc4ccc5ncccc5c4)c3n2)cc1F`, the melting point was 120 to 122 °C.

Turning to `Cc1ncn(-c2ccc(N)cc2F)n1`, the melting point lay within 122 to 125 °C.

As to `CCOC(=O)CCCC1CCN(CCOC(c2ccccc2)c2ccc(F)cc2)CC1` (stereo unspecified), the melting point lay within 119 to 120 °C.

Molecule `CN1CCN(Cc2c(O)ccc3c2OCO3)CC1` gave a melting point of 85 to 87 °C.

In turn, `CCN(CC)Cc1nc(-c2ccc(OC)c(OC)c2)c2cc(OC)c(OC)cc2n1` yielded a melting point of 111 to 113 °C.

`O=C(C(=O)c1cccnc1)c1ccccc1` gave a melting point of 56 to 57 °C.

The molecule `Cc1ccc(C(=O)OCc2c3ccccc3cc3ccccc23)cc1` displayed a melting point of 124 °C.

For `CCCCCNC(=O)n1nc(Oc2ncc(C(F)(F)F)cc2Cl)c(Cl)c1C`, the melting point lay in the range of 76 to 78 °C.

On to `Cc1ccc(C(=O)NCCCSc2ccncc2)s1`, for which the melting point was 86 to 87 °C.

`CC(=N)Nc1cccc(O)c1` gave a melting point of 115 to 118 °C.

In the case of `CN(C)CCc1c[nH]c2ccc(C=CC(=O)NCc3ccc([N+](=O)[O-])cc3)cc12`, the melting point is 177 to 187 °C.

For `O=C(/C=C/C=C(c1ccccc1)c1ccccc1)Oc1ccc([N+](=O)[O-])cc1`, the melting point was in the range of 113 to 115 °C.

The molecule `O=C(Nc1cccc2ccnnc12)c1c(Cl)cccc1Cl` came in with a melting point of 226 to 228 °C.

In turn, `O=C(c1nnc(-c2ccccc2)o1)N1CC(Oc2ccc(CN3CC4(COC4)C3)c(Cl)c2)C1` displayed a melting point of 114 to 124 °C.

`Cc1cc(COc2ccc(Oc3ccccc3)cc2)on1` displayed a melting point of 48 to 51 °C.

For the molecule `COCCc1nc2c(N)nc3ccccc3c2n1CC1(O)CCOCC1`, the melting point fell in the range of 205 to 206 °C.

For the molecule `O=C(NO)[C@H](CNS(=O)(=O)c1ccc(OCc2ccc3ccccc3c2)cc1)N1CCCCC1`, the melting point turned out to be 106 °C.

Consider `Cc1c(O)cc2c(c1C)N(C=O)CC2`, for which the melting point lay within 192 to 193 °C.

As for `CCCCc1nc(Cl)c(CO)n1Cc1ccc(-c2ccccc2-c2nnn(C(c3ccccc3)(c3ccccc3)c3ccccc3)n2)cc1`, the melting point is 168 to 169 °C.

On to `COc1cccc(C2=Nc3ccc(N4CCCC4)cc3C(=O)C2)c1OC`, for which the melting point fell in the range of 258 to 260 °C.

`CCCCCCCCCCC/C=C/c1ccc(C=CC(=O)O)cc1` yielded a melting point of 107 °C.

`O=C(O)CCCc1ccc2c(NC(=O)CC3CCCCC3)c(Cl)ccc2n1` had a melting point of 216 to 220 °C.

Consider `O=C(O)Cc1c(Cl)nc(-c2ccc(O)cc2)n1Cc1ccccc1`, for which the melting point is 140 to 145 °C.

In turn, `COC(=O)C1CC(C#N)(c2ccc(OC)c3c2OCCO3)CCC1=O` (stereo unspecified) had a melting point of 129 to 132 °C.

For the molecule `CN1CCCC(Cn2nc(-c3c(-c4ccccc4)nn4ccccc34)ccc2=O)C1` (stereo unspecified), the melting point fell in the range of 159 to 160 °C.

`Cc1nnc2n1-c1sc(C(C)OC(=O)C(C)(C)C)cc1C(c1ccccc1Cl)=NC2` (stereo unspecified) returned a melting point of 148 to 151 °C.

Turning to `COCCOC(=O)Nc1cccc(C)c1COc1cccn2c(CO)c(C)nc12`, the melting point is 121 to 123 °C.

The molecule `CC(C=O)C1CCC2C3CCC4CCCCC4(C)C3CCC12C` (stereo unspecified) yielded a melting point of 248 to 252 °C.

Take `Cc1cccc(C)c1OCC(=O)NC(Cc1ccccc1)C(O)CC(N)Cc1ccccc1` (stereo unspecified): the melting point stood at 131 °C.

As for `COc1ccc(C(=O)O)cc1NC(=O)C(CSC(C)=O)Cc1ccccc1` (stereo unspecified), the melting point is 172 to 175 °C.

Turning to `OC1(Cc2ccccc2F)CCN(Cc2ccccc2)C1` (stereo unspecified), the melting point was in the range of 75 to 77 °C.

In turn, `CCOC(=O)C(C#N)=Cc1cc([N+](=O)[O-])ccc1Cl` yielded a melting point of 83 to 85 °C.

In turn, `O=C(Nc1ccc2ccc(Cl)nc2n1)c1ccc(Cl)s1` registered a melting point of 275 °C.

`CN1C(=O)CSC=C1c1ccccc1` came in with a melting point of 95 to 97 °C.

Take `CCOc1nc2ccc(Cl)cc2c(-c2ccccc2)c1NC(=O)Nc1ccc(F)cc1F`: the melting point was in the range of 238 to 239 °C.

`NC(=O)Cc1ccccc1CSc1nc2ccccc2[nH]1` displayed a melting point of 218 to 222 °C.

Turning to `CCCCCCC(O)CCCCCCCCCCC(=O)NCCNCCO` (stereo unspecified), the melting point was 102 °C.

As to `CS(=O)(=O)NCCCCn1c(-c2ccccc2)nc2c(N)nc3ccccc3c21`, the melting point was in the range of 234 to 235 °C.

For the molecule `CS(=O)(=O)c1ccc(-n2cnc3ccc(-c4nnc(CC(F)(F)F)o4)cc32)cc1`, the melting point lay within 229 to 232 °C.

As to `O=c1cc(N2CCOCC2)cc(-c2ccccc2)o1`, the melting point lay within 161 to 162 °C.

`CC(C)(C)c1ccc(CC(=O)O)c(Cc2ccc(CC(=O)O)cc2)c1` showed a melting point of 138 to 139 °C.

In turn, `OCC1(CO)Nc2cccc3cccc(c23)N1` returned a melting point of 158 °C.
